System: CD4-CD8+ cells
Experiment: Subset test of lymphocytes from thymus (Example 2)
Assay type: in vivo, mouse
Details: 10 mg/kg orally once a day for 7 days
Procedure: Mice (35 to 45 weeks old, BALB/cAJc1) preliminary raised for 1 week were injected with 10 mg of ALA hydrochloride per 1 kg mouse body weight once a day for 7 days continuously. ALA hydrochloride was adjusted to a concentration of […] with distilled water and orally administered to the mice. After the test, each mouse was sacrificed and the weight of its thymus and the number of cells were measured. In addition, a subset test of lymphocytes was carried out using the obtained cells. The test was carried out using 5 mice per 1 plot, and their values were shown by average value. […] Also, since the cell of CD4-CD8+ was increased in the ALA-treated plot based on the subset test, it was confirmed that the cytotoxic T cell increases after its future differentiation, so that its immunological function improving ability was shown (Table 3). In addition, photographs of the thymus of untreated plot (un-administered group) and the thymus of ALA-treated plot (ALA-treated group) are shown in FIG. 1.

NCC(=O)CCC(=O)O [ALA, 5-aminolevulinic acid]
CD4−CD8+ (%) (female mice): 3.25%
CD4−CD8+ (%) (male mice): 5.55%
